Measurements: PMC4562813 (Bioorganic & medicinal chemistry, 2015)

Legend:
[1] = tested on: RPMI-8226 leukemia cell line; assay: NCI dose-dependent growth inhibition, RPMI-8226; format: cell-based; conditions: 48-h exposure, optical density, data provided by NCI
[2] = tested on: HL-60 leukemia cell line; assay: NCI dose-dependent growth inhibition, HL-60; format: cell-based; conditions: 48-h exposure, optical density, data provided by NCI
[3] = tested on: SR leukemia cell line; assay: NCI dose-dependent growth inhibition, SR; format: cell-based; conditions: 48-h exposure, optical density, data provided by NCI
[4] = tested on: MOLT-4 leukemia cell line; assay: NCI dose-dependent growth inhibition, MOLT-4; format: cell-based; conditions: 48-h exposure, optical density, data provided by NCI
[5] = biological target: human 20S proteasome (hs20S), trypsin-like activity mediated by the β2 subunit (Homo sapiens, UniProt P49720+Q99436); format: biochemical; conditions: Boc-LRR-AMC, Table 2
[6] = tested on: K-562 leukemia cell line; assay: NCI dose-dependent growth inhibition, K-562; format: cell-based; conditions: 48-h exposure, optical density, data provided by NCI

Work on syringolin B methyl ester [Compound 1] yielded a GI50 [1] of 3.97 µM, a GI50 [2] of 5.41 µM and a GI50 [3] of 5.13 µM. The GI50 [4] was 4.73 µM, the “Trypsin-Like Activity kin/Ki” value [5] was 326 M⁻¹ s⁻¹ and the GI50 [6] was 6.12 µM.
